Where two headings read alike, the source gives them in different places.
Molecular target: T1, HIV-1 protease (Human immunodeficiency virus type 1 group M subtype B, UniProt P04585)
T1 construct: The protease (or proteinase), consisting of only 99 amino acids, is among the smallest enzymes known
Experiment: In vitro HIV protease inhibitory assay (HIV Protease FITC Assay)
Assay type: biochemical
Conditions: read-out: HIV-1 Protease % Inhib
Outline: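 Percent inhibition was read as fluorescence after avidin-bead capture and filtration separated FITC cleavage product from biotinylated substrate. Enzyme and substrate reacted 1 h, RT, dark, at pH 5.5 (0.1 M sodium acetate, 1.0 M NaCl, 0.05% NP-40).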

Structure (SMILES)	inhibition at 0.123 µM (HIV-1 Dose 0.123 uM) [%]	inhibition at 0.37 µM (HIV-1 Dose 0.370 uM) [%]	inhibition at 1.1 µM (HIV-1 Dose 1.100 uM) [%]	inhibition at 3.3 µM (HIV-1 Dose 3.300 uM) [%]	inhibition at 10 µM (HIV-1 Dose 10.000 uM) [%]	inhibition at 30 µM (HIV-1 Dose 30.000 uM) [%]	inhibition at 100 µM (HIV-1 Dose 100.000 uM) [%]	inhibition at 0.123 µM [%]	inhibition at 0.37 µM [%]	inhibition at 1.1 µM [%]	inhibition at 3.3 µM [%]	inhibition at 10 µM [%]	inhibition at 30 µM [%]
O=c1oc(CCCC(F)(F)F)cc(O)c1C(c1ccccc1)C1CC1 (stereo not shown) [Example 118, 3-(Cyclopropyl-phenyl-methyl)-4-hydroxy-6-(4,4,4-trifluoro-butyl)-pyran-2-one]	< 10	< 10	20	52.4	83.9	102	–	–	–	–	–	–	–
O=c1oc(CCc2nnnn2C2CCCCC2)cc(O)c1C(c1ccccc1)C1CC1 (stereo not shown) [Example 119, 6-[2-(1-Cyclohexyl-1H-tetrazol-5-yl)-ethyl]-3-(cyclopropyl-phenyl-methyl)-4-hydroxy-2-one]	< 10	< 10	< 10	< 10	20.7	60.3	–	–	–	–	–	–	–
CCC(C1=C(O)CC(Cc2ccccc2)(Cc2ccccc2)OC1=O)c1ccccc1 (stereo not shown) [Example 120, 6,6-Dibenzyl-4-hydroxy-3-(1-phenyl-propyl)-5,6-dihydro-pyran-2-one]	< 10	< 10	10.1	26.2	46.4	60.1	–	–	–	–	–	–	–
C=CC(C1=C(O)CC2(CCOCC2)OC1=O)c1ccccc1 (stereo not shown) [Example 121, 4-Hydroxy-3-(1-phenyl-allyl)-1,9-dioxa-spiro[5.5]undec-3-en-2-one]	< 10	< 10	< 10	10.8	40.2	68.5	–	–	–	–	–	–	–
Cc1cc(O)c(CC=Cc2ccccc2)c(=O)o1 [Example 122, 4-Hydroxy-6-methyl-3-(3-phenyl-prop-2-enyl)-2H-Pyran-2-one]	–	–	–	–	–	–	26	–	–	–	–	–	–
CCC(C1=C(O)CC2(CCC(=O)CC2)OC1=NO)c1ccccc1 (stereo not shown) [Example 123, 4-Hydroxy-3-(1-phenyl-propyl)-1-oxa-spiro[5.5]undec-3-ene-2,9-dione monooxime]	< 10	< 10	< 10	14.8	39.6	72	–	–	–	–	–	–	–
CCC(Cc1ccccc1)c1cc(O)c(C2(c3ccccc3)CCC2)c(=O)o1 (stereo not shown) [Example 124, 4-Hydroxy-3-(1-phenylcyclobutyl)-6-[1-(phenylmethyl)propyl]-2H-pyran-2-one]	< 10	< 10	< 10	27.5	53.4	64.8	–	–	–	–	–	–	–
C=CC(C1=C(O)CC2(CCCCCCC2)OC1=O)c1ccccc1 (stereo not shown) [Example 125, 4-Hydroxy-3-(1-phenyl-2-propenyl)-1-oxaspiro[5.7]tridec-3-en-2-one]	< 10	< 10	15.4	45.7	71	89.7	–	–	–	–	–	–	–
CCC(C1=C(O)CC2(CCCCCCC2)OC1=O)c1ccccc1 (stereo not shown) [Example 126, 4-Hydroxy-3-(1-phenylpropyl)-1-oxaspiro[5.7]tridec-3-en-2-one]	–	–	–	–	–	–	–	< 10	< 10	13.2	42.9	66.8	81
C=CC(C1=C(O)CC2(CCCCCC2)OC1=O)c1ccccc1 (stereo not shown) [Example 127, 4-Hydroxy-3-(1-phenylallyl)-1-oxa-spiro[5.6]-dodec-3-en-2-one]	< 10	14.4	38.4	65.6	98.9	102	–	–	–	–	–	–	–
C=CC(C1=C(O)CC2(CCCC2)OC1=O)c1ccccc1 (stereo not shown) [Example 128, 4-Hydroxy-3-(1-phenylallyl)-1-oxa-spiro[5.4]-dec-3-en-2-one]	< 10	< 10	18.5	46.8	79.8	95.7	–	–	–	–	–	–	–
C=CC(C1=C(O)CC2(CCCCC2Cc2ccccc2)OC1=O)c1ccccc1 (stereo not shown) [Example 129, 7-Benzyl-4-hydroxy-3-(1-phenylallyl)-1-oxa-spire[5.5]undec-3-en-2-one]	–	–	–	–	–	–	–	< 10	< 10	43.5	67.1	80.7	83.4

Source: patent publication EP1203770A1 (priority 1992, dated 1994)
